From patent US20070218475A1, “Efficient drug screening for protein targets” (priority 2005, published 2007) come the findings set out here.

The target in test [1] is T1, Smo protein from Drosophila (Drosophila melanogaster, UniProt P91682).
T1 construct: expressed in transfected cells; host or cells: Cos-1
T1 sequence (P91682 32-1036): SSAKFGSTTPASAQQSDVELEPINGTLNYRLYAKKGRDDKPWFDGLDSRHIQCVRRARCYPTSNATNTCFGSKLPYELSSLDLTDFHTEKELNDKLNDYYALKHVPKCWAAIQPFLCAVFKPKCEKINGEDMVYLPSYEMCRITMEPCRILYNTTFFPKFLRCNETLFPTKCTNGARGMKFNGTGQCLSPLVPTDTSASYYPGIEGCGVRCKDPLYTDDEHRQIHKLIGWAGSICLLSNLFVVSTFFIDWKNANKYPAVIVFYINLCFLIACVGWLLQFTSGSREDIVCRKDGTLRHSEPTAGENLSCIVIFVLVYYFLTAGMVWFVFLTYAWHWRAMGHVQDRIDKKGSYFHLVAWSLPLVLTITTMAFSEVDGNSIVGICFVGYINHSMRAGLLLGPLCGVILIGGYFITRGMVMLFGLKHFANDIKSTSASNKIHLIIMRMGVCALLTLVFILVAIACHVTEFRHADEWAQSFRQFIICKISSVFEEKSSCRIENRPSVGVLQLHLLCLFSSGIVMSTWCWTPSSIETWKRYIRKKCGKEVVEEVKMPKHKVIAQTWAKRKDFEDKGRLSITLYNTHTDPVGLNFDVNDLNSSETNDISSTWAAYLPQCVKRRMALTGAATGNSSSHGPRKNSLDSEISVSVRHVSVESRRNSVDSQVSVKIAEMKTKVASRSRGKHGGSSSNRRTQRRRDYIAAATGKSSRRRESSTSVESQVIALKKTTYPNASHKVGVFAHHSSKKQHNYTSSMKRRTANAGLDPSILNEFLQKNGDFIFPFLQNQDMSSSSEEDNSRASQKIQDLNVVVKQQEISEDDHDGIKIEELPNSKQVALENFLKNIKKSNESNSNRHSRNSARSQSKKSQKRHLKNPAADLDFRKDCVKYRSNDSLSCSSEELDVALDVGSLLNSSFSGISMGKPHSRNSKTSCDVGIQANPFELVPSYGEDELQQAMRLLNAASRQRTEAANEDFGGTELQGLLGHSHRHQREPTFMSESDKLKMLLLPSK
Description: Fluorescence (BODIPY-cyclopamine) binding assay, Cos-1 cells expressing Drosophila Smo. The following applies: flow cytometry. As for the experimental part:
Fluorescence binding assay: Cos-1 cells were transfected in 6-well plates with the described expression vectors (1 μg/well), and after two days, incubated in DMEM containing 10% fetal bovine serum, 5 nM BODIPY-cyclopamine, and various concentrations of the indicated competitors for 4-6 h at 37° C. For flow cytometry experiments, the cells were then trypsinized, collected by centrifugation, resuspended in phenol red-free DMEM containing 0.5% bovine calf serum, and analyzed for green fluorescence (FACScan, Beckton Dickinson). A fluorescence intensity range that excludes non-transfected cells was then selected for quantification of specific BODIPY-cyclopamine binding (see brackets in FIGS. 2C, 2D, and 3A). Curve fitting analysis was performed with Kaleidograph (Synergy Software).
(A flow cytometer gives signals particle by particle.)

For another test, the target named is T2, SmoΔCRD (Mus musculus, UniProt P56726, DEL68-182).
T2 construct: expressed in transfected cells; host or cells: Cos-1
T2 sequence (P56726 with tags, fused parts or gaps DEL68-182): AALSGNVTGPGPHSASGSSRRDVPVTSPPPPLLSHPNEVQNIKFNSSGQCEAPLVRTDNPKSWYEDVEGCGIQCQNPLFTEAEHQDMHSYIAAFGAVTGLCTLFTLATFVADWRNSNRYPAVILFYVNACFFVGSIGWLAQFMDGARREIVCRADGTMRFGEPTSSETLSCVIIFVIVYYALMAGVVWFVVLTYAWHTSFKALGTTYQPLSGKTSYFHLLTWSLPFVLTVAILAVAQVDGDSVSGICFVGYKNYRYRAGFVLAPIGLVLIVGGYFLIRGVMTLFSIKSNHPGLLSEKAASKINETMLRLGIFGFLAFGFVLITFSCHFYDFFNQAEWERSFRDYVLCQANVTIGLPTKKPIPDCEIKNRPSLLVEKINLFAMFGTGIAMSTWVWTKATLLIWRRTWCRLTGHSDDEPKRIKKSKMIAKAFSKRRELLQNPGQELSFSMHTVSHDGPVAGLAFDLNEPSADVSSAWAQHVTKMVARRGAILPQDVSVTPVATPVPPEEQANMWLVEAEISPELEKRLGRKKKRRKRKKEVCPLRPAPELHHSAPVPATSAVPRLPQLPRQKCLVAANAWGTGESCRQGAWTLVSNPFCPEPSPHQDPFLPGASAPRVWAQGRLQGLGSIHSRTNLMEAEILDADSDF
The test can be described thus: Fluorescence (BODIPY-cyclopamine) binding assay, Cos-1 cells expressing SmoΔCRD. The following applies: Cos-1 cells, flow cytometry. The text has this:
Preparation of Smo fusion proteins and deletion mutants: Both Smo-Myc3 and SmoA1-Myc3 are C-terminally fused to three consecutive Myc epitopes. […] Smo-GFP is comprised of green fluorescent protein fused to the C-terminus of Smo, and the fluorescent proteins in SmoA1-YFP, and SmoA1-GFP are similarly fused to the C-terminus of SmoA1. All constructs were generated by PCR and verified by DNA sequencing.
For flow cytometry experiments, the cells were then trypsinized, collected by centrifugation, resuspended in phenol red-free DMEM containing 0.5% bovine calf serum, and analyzed for green fluorescence (FACScan, Beckton Dickinson). […] Curve fitting analysis was performed with Kaleidograph (Synergy Software).

The structures appear in SMILES notation.

`CC1=C2CC3C(CC=C4C[C@@H](O)CCC43C)C2CCC12O[C@@H]1CC(C)CN(CCNC(=O)CCCCCNC(=O)CCC3=[N+]4C(=Cc5c(C)cc(C)n5[B-]4(F)F)C=C3)C1C2C` (some centres unmarked) [BODIPY-cyclopamine]: the “binding to cells expressing Drosophila Smo” value in test [1] is reported as “did not bind”. At SmoΔCRD, the “binding to cells expressing SmoΔCRD” value is given as “can bind”.
